Earlier results as cited in US10138251B2, “Spiro[3H-indole-3,2′-pyrrolidin]-2(1H)-one compounds and derivatives as MDM2-P53 inhibitors” (Boehringer Ingelheim International GmbH, priority 2014, dated 2018).

Experiments:
[1] = test system: human prostate tumor xenograft models harboring p53 wild-type; conditions: Tovar et al. 2013; cited from earlier work
[2] = test system: solid tumor xenograft models; conditions: Carol et al. 2013; cited from earlier work
[3] = test system: acute lymphoblastic leukemia (ALL) xenograft models with mixed-lineage leukemia (MLL) rearrangement; conditions: Carol et al. 2013; cited from earlier work
[4] = test system: human acute myeloid leukemia (AML) xenograft models harboring p53 wild-type; conditions: Tovar et al. 2013; cited from earlier work

Q: Which results are given for `CCOc1cc(C(C)(C)C)ccc1C1=N[C@@](C)(c2ccc(Cl)cc2)[C@@](C)(c2ccc(Cl)cc2)N1C(=O)N1CCN(CCCS(C)(=O)=O)CC1` [RG7112]?
A: antiproliferative and proapoptotic activity [1]: antiproliferative and proapoptotic activity; tumor growth inhibition [2]: induced tumor growth inhibition; efficacy [3]: particularly efficacious; antiproliferative and proapoptotic activity [4]: antiproliferative and proapoptotic activity
